The values that follow come from publication PMC9967118, “Influence of Mutations of Conserved Arginines on Neuropeptide Binding in the DPP III Active Site” (Molecules, 2023).

Experiment [1] deals with T1, Human DPP3 wild-type (WT) (Homo sapiens, UniProt Q9NY33).
T1 construct: made in house; host or cells: E. coli
T1 sequence (Q9NY33 1-737): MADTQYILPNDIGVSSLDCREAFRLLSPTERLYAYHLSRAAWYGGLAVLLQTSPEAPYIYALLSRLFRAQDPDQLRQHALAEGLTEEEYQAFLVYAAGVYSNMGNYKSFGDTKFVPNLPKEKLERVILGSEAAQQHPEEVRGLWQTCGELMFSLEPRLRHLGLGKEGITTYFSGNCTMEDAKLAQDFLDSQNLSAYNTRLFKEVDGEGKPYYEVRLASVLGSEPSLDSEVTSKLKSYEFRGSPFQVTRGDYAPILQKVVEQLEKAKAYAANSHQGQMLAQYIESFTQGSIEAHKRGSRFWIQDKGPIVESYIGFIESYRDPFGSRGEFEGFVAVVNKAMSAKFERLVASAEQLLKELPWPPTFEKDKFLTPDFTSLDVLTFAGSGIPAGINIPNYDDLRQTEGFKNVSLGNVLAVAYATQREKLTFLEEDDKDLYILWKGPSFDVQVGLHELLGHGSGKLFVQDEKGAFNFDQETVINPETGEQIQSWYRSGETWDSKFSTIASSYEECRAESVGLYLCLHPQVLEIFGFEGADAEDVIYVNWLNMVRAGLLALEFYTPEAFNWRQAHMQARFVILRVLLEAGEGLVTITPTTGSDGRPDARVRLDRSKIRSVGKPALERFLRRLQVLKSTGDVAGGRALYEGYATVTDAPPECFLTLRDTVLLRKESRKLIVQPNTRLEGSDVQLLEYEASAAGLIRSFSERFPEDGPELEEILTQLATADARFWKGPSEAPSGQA
In words: Inhibition of DPP III catalyzed hydrolysis of Arg2-2NA, wild-type enzyme. Type of experiment: biochemical. The protocol:
(§1) Human DPP3 wild-type (WT) and variants R669A and R669M were expressed in E. coli and purified using IMAC, as described in detail recently. Briefly, variants were prepared using a QuikChange II site-directed mutagenesis kit (Agilent Technologies, Santa Clara, CA, USA) while following the manufacturer’s instructions, with the hDPP3 gene on a pET21a plasmid as template. Complementary primer pairs were ordered from Macrogen Europe (The Netherlands) with the following sequences:
(§2) Proteins were expressed in E. coli for approximately 20 h at 18 °C, shaken at 120 rpm, and paired with 0.25 mM IPTG as an expression inductor. Cell pellets were lysed with lysosyme and with sonication; the lysate was then purified with DNAse I and through centrifugation, and affinity chromatography was performed on a Rotigarose His/Ni column. Lysis, wash, and elution buffers contained imidazole at concentrations of 10 mM, 20 mM, and 300 mM, respectively, and all buffers contained 50 mM Tris pH = 8.0, 300 mM NaCl. Fractions were pooled based on protein concentration (determined by using a BioDrop microvolume spectrophotometer) and purity (assessed by SDS-PAGE), and they were desalted on a PD-10 column with 20 mM Tris-Cl buffer, pH = 7.5. Aliquots were frozen and stored at −80 °C.
(§3) Enzyme kinetics were measured using an Agilent Cary Eclipse fluorescence spectrophotometer (Agilent Technologies, Santa Clara, CA, USA) with Arg2-2NA as a substrate analog and fluorescent 2NA as the product of the peptidase reaction. The assay has been described in detail previously. Arg2-2NA and peptide in 20 mM Tris-Cl buffer pH = 7.4 were pre-incubated at 25 °C for 2 min before the reaction was started by adding the enzyme into the cuvette. Substrate concentrations ranged from 0.25 to 100 μM. The peptide (inhibitor) concentrations were chosen so the output could be easily measured. […] Three peptide concentrations were used for each peptide. The enzyme concentration was 1 nM in all measurements.

For experiment [2], the target named is T2, Human DPP3 variant R669A (Homo sapiens, UniProt Q9NY33, R669A).
T2 construct: made in house; host or cells: E. coli
T2 sequence (Q9NY33 1-737 R669A): T1 sequence (Q9NY33 1-737) with R669A
Put plainly: Inhibition of DPP III catalyzed hydrolysis of Arg2-2NA, R669A variant. Type of experiment: biochemical. The protocol:
as §1, §2, §3

Experiment [3] concerns the target T3, Human DPP3 variant R669M (Homo sapiens, UniProt Q9NY33, R669M).
T3 construct: made in house; host or cells: E. coli
T3 sequence (Q9NY33 1-737 R669M): T1 sequence (Q9NY33 1-737) with R669M
In words: Inhibition of DPP III catalyzed hydrolysis of Arg2-2NA, R669M variant. Type of experiment: biochemical. The protocol:
as §1, §2, §3

Experiment [4] addresses T2, Human DPP3 variant R669A. Put plainly: Michaelis–Menten test for the hydrolysis of Arg2-2NA, R669A variant. Type of experiment: biochemical. Conditions: enzyme 1 nM, 20 mM Tris-Cl pH 7.4, 25 °C, best fit ± standard error. As to the method: as §1
(§4) Proteins were expressed in E. coli for approximately 20 h at 18 °C, shaken at 120 rpm, and paired with 0.25 mM IPTG as an expression inductor. Cell pellets were lysed with lysosyme and with sonication; the lysate was then purified with DNAse I and through centrifugation, and affinity chromatography was performed on a Rotigarose His/Ni column. […] Fractions were pooled based on protein concentration (determined by using a BioDrop microvolume spectrophotometer) and purity (assessed by SDS-PAGE), and they were desalted on a PD-10 column with 20 mM Tris-Cl buffer, pH = 7.5. […]
(§5) Enzyme kinetics were measured using an Agilent Cary Eclipse fluorescence spectrophotometer (Agilent Technologies, Santa Clara, CA, USA) with Arg2-2NA as a substrate analog and fluorescent 2NA as the product of the peptidase reaction. […] The peptide (inhibitor) concentrations were chosen so the output could be easily measured. […]

Experiment [5] concerns the target T3, Human DPP3 variant R669M. Put plainly: Michaelis–Menten test for the hydrolysis of Arg2-2NA, R669M variant. Type of experiment: biochemical. The following applies: enzyme 1 nM, 20 mM Tris-Cl pH 7.4, 25 °C, best fit ± standard error. The protocol: as §1, §4, §5
Experiment [6] concerns the target T1, Human DPP3 wild-type (WT). In words: Michaelis–Menten test for the hydrolysis of Arg2-2NA, wild-type enzyme. Type of experiment: biochemical. The following applies: enzyme 1 nM, 20 mM Tris-Cl pH 7.4, 25 °C, best fit ± standard error. The protocol: as §1, §4, §5
For experiment [7], the system named is DPP III. Conditions: human renal epithelial cells; cited from earlier work. The source says:
(§6) Dipeptidyl peptidase III (DPP III, EC 3.4.14.4) is a monozinc metallopeptidase that hydrolyzes dipeptides from the N-terminus of its substrates consisting of three or more amino acids. DPP III is the only member of the M49 metallopeptidase family and the only metalloenzyme among dipeptidyl peptidases. This two-domain exopeptidase is broadly distributed in human tissues, where it participates in the final stages of protein turnover.

Experiment [8] deals with human DPP III (hDPP III). Further details: method as in 2 sources, one per row (each row's own in cited_ref): ref 17 = [17]; PMID 35163780; doi:10.3390/ijms23031858; 17. Tomić A. Tomić S. Demystifying DPP III Catalyzed Peptide Hydrolysis—Computational Study of the Complete Catalytic Cycle of Human DPP III Catalyzed Tynorphin Hydrolysis Int. J. Mol. Sci. 2022 23 18 ||| ref 18 = [18]; PMID 36116590; doi:10.1016/j.ijbiomac.2022.09.119; 18. Karačić Z. Šupljika F. Tomić A. Brkljačić L. Paić A.T. Ćehić M. Tomić S. Neuropeptides, Substrates and Inhibitors of Human Dipeptidyl Peptidase III, Experimental and Computational Study—A New Subs. The following applies: computational and experimental study of neuropeptides; cited from earlier work. The text has this: Despite the efforts of numerous scientists, knowledge about the role that DPP III might play in various physiological processes is still unclear. […] In this and in QM/MM studies ...

For experiment [9], the system named is angiotensin II-infused hypertensive mice. The following applies: cited from earlier work.
Description: as §6

Where [10] appears, read: substrate 0.25–100 μM, fluorescence of 2NA.
[11] abbreviates: WT hDPP III 1 nM, substrate Arg2-2NA 0.25–100 μM, 20 mM Tris-Cl pH 7.4, 25 °C, 2 min pre-incubation, fluorescence of 2NA, competitive inhibition, best fit ± standard error, inhibitor tynorphin 1–50 nM, valorphin 15–150 nM.
The mark [12] stands for this setting: R669M hDPP III 1 nM, substrate Arg2-2NA 0.25–100 μM, 20 mM Tris-Cl pH 7.4, 25 °C, 2 min pre-incubation, fluorescence of 2NA, competitive inhibition, best fit ± standard error, tynorphin 1–5 μM, valorphin 0.75–11.2 μM.

Changes are numbered by the printed parent chain. Where two headings read alike, the source gives them in different places. Where no end group is shown, it is not given here.

One may read the Ki as a dissociation constant, usually derived from enzyme kinetics or from competition with a known ligand. The low end stands for tighter binding, the high end for weaker binding. Regarding `CC(C)C[C@H](NC(=O)[C@H](Cc1ccccc1)NC(=O)CNC(=O)CNC(=O)[C@@H](N)Cc1ccc(O)cc1)C(=O)O` [Leu-enkephalin], the Ki in experiment [1] is 10.4 ± 1.4 µM; in [2], 52 ± 5.3 µM; in experiment [3], 58 ± 7 µM. Besides, the “effects of the R669M and R669A mutations on the Ki” value in experiment [3] (R669M versus R669A) is recorded as “the same”.

A word on the kcat: it is the number of substrate molecules converted per active site and unit of time at saturation. The Km is the concentration of substrate that gives half-maximal velocity. In the case of Arg2-2NA, the turnover number (kcat) was found to be 2.24 ± 0.05 s⁻¹ in experiment [4], 2.26 ± 0.03 s⁻¹ in [5] and 3.74 ± 0.07 s⁻¹ in experiment [6]. In addition, the results for the Michaelis-Menten constant (Km) in experiment [4] (setting [10]), in experiment [5] (setting [10]) and in experiment [6] (setting [10]) were 3.4 ± 0.3 µM, 2.8 ± 0.2 µM and 7.8 ± 0.6 µM, respectively. The “effect of mutation of R669 to Ala or Met on inhibitory properties / binding” value in experiment [2] (R669A or R669M versus WT, inhibitory assays) is on record as “small”.

Take VVYPW [tynorphin]: the inhibitory constant (Ki) in [1] (setting [11]) was determined as 0.0112 ± 0.0008 µM; in experiment [2] it was 0.328 ± 0.025 µM; in experiment [3] (setting [12]), 0.102 ± 0.016 µM.

Take VVYPWTQ [valorphin]: the inhibitory constant (Ki) in [1] (setting [11]) amounted to 0.0365 ± 0.0029 µM; in experiment [2], 1.21 ± 0.224 µM; in [3] (setting [12]), 0.406 ± 0.033 µM.

Regarding “angiotensin (1–7): peptide degraded by DPP III in human renal epithelial cells (DRVYIHP; Angiotensin 1-7; UniProt P01019 25-31, looked up)”, in [7], the “degradation by DPP III” value is “DPP III degrades angiotensin (1–7)”.

As for β-casomorphin, in experiment [8], the “in vitro substrate identification / substrate class with hDPP III” value is “in vitro substrates of hDPP III”.

B1: DPP III: zinc exopeptidase (EC 3.4.14.4), M49 family (protein, UniProt Q9NY33 2-737, looked up)
Dipeptidyl peptidase 3: ADTQYILPNDIGVSSLDCREAFRLLSPTERLYAYHLSRAAWYGGLAVLLQTSPEAPYIYALLSRLFRAQDPDQLRQHALAEGLTEEEYQAFLVYAAGVYSNMGNYKSFGDTKFVPNLPKEKLERVILGSEAAQQHPEEVRGLWQTCGELMFSLEPRLRHLGLGKEGITTYFSGNCTMEDAKLAQDFLDSQNLSAYNTRLFKEVDGEGKPYYEVRLASVLGSEPSLDSEVTSKLKSYEFRGSPFQVTRGDYAPILQKVVEQLEKAKAYAANSHQGQMLAQYIESFTQGSIEAHKRGSRFWIQDKGPIVESYIGFIESYRDPFGSRGEFEGFVAVVNKAMSAKFERLVASAEQLLKELPWPPTFEKDKFLTPDFTSLDVLTFAGSGIPAGINIPNYDDLRQTEGFKNVSLGNVLAVAYATQREKLTFLEEDDKDLYILWKGPSFDVQVGLHELLGHGSGKLFVQDEKGAFNFDQETVINPETGEQIQSWYRSGETWDSKFSTIASSYEECRAESVGLYLCLHPQVLEIFGFEGADAEDVIYVNWLNMVRAGLLALEFYTPEAFNWRQAHMQARFVILRVLLEAGEGLVTITPTTGSDGRPDARVRLDRSKIRSVGKPALERFLRRLQVLKSTGDVAGGRALYEGYATVTDAPPECFLTLRDTVLLRKESRKLIVQPNTRLEGSDVQLLEYEASAAGLIRSFSERFPEDGPELEEILTQLATADARFWKGPSEAPSGQA
On to B1, for which the blood pressure result in experiment [9] is “lowering blood pressure”.
